Assay results: paper PMC2906235 (The Journal of organic chemistry, 2010)
pIC50: −log10 of the molar value. Read-outs that look alike come from different tables or passages of the source.

Legend:
[1] = target: recombinant human Hsp90 (Hsp90α) (Homo sapiens, UniProt P07900); assay: Competitive binding to recombinant human Hsp90; conditions: relative to control 17-AAG
[2] = tested on: Kasumi-1 acute myeloid leukemia cell line; assay: Kasumi-1 cell growth inhibition assay; format: cell-based; conditions: read-out: Kasumi-1 IC50
[3] = tested on: MOLM-13 acute myeloid leukemia cell line; assay: MOLM-13 cell growth inhibition assay; format: cell-based
oncostatin M signaling = conditions: cited from earlier work
[4] = tested on: Hsp90 derived from MDA-MB-468 breast cancer cell lysate; assay: Competitive binding assay to Hsp90 from MDA-MB-468 breast cancer cell lysate
[5] = tested on: human histiocytic lymphoma U-937; conditions: U-937 cells; cited from earlier work
[6] = read-out: MOLM-13 IC50, cell growth inhibition, MOLM-13

Structure (SMILES)	Fold higher Hsp90 affinity than 17-AAG [1]	Fold higher Hsp90 affinity than 17-AAG ([1]; listed as autolytimycin 2)	pIC50 [2]	pIC50 [3, 6]	pIC50 ([3]; read-out: MOLM-13 IC50, cell growth inhibition, MOLM-13, listed as autolytimcyin (2))	Activity in cell based oncostatin M signaling assay (oncostatin M signaling)	Competitive binding (nanomolar activity) to Hsp90 ([4]; Hsp90 from MDA-MB-468 breast cancer cell lysate)	Fold enhanced activity over geldanamycin ([4]; MDA-MB-468 lysate competitive binding)	Fold higher Hsp90 affinity than 17-AAG ([1]; listed as reblastatin 1)	pIC50 ([3]; Homo sapiens, MOLM-13, read-out: MOLM-13 IC50, cell growth inhibition, MOLM-13)	Fold less active than 17-AAG ([3]; MOLM-13 cell line)	IC50, inhibition of proliferation [5]	pIC50 (oncostatin M signaling; read-out: IC50, oncostatin M signaling assay, cell-based)	pIC50 ([3]; read-out: MOLM-13 IC50, cell growth inhibition, MOLM-13, listed as 17-AAG 4)
CO[C@H]1C[C@H](C)Cc2cc(O)cc(c2)NC(=O)/C(C)=C/CC[C@H](OC)[C@@H](OC(N)=O)/C(C)=C/[C@H](C)[C@H]1O [autolytimycin (2), Autolytimycin]	4 fold	about 4 fold	6.55	~6.29	6.29	exhibit activity								
COc1c(O)cc2cc1C[C@@H](C)C[C@H](OC)[C@H](O)[C@@H](C)/C=C(\C)[C@H](OC(N)=O)[C@@H](OC)CC/C=C(\C)C(=O)N2 [reblastatin (1), reblastatin]	4 fold						7.34 nM	4 fold	about 4 fold	~6.57	3 fold	0.43 µg/mL	6.80	
C=CCNC1=C2C[C@@H](C)C[C@H](OC)[C@H](O)[C@@H](C)/C=C(\C)[C@H](OC(N)=O)[C@@H](OC)/C=C\C=C(/C)C(=O)NC(=CC1=O)C2=O [17-AAG (4), 17-allylamino-17-demethoxygeldanamycin, reference compound]			6.32	7.05										~7.05
